From the NIST ThermoML archive (doi:10.1016/j.fluid.2016.09.021)
Numbers after ± are expanded uncertainties.

Settings: Liquid, Vibrating tube method

Cc1ccccc1 [toluene]
mass density [kg/m3]
Settings | 293 K | 313 K | 333 K | 353 K | 373 K | 393 K | 413 K | 433 K | 448 K | 468 K
2000 kPa | 871.2 ± 2 | 852.2 ± 2 | 833 ± 2 | 814.2 ± 2.1 | 794.2 ± 2.1 | 774.2 ± 2.1 | 753.1 ± 2.2 | 731.6 ± 2.2 | 714.3 ± 2.3 | 689.9 ± 2.3
3000 kPa | 871.9 ± 2 | 853 ± 2 | 834 ± 2 | 815.2 ± 2 | 795.4 ± 2.1 | 775.7 ± 2.1 | 754.9 ± 2.1 | 733.6 ± 2.2 | 716.6 ± 2.2 | 692.7 ± 2.3
4000 kPa | 872.6 ± 2 | 853.9 ± 2 | 834.9 ± 2 | 816.3 ± 2.1 | 796.6 ± 2.1 | 777.2 ± 2.1 | 756.5 ± 2.1 | 735.6 ± 2.2 | 718.9 ± 2.2 | 695.5 ± 2.3
5000 kPa | 873.2 ± 2 | 854.6 ± 2 | 835.8 ± 2 | 817.3 ± 2 | 797.8 ± 2.1 | 778.5 ± 2 | 758.3 ± 2.1 | 737.5 ± 2.1 | 721.1 ± 2.2 | 698.2 ± 2.3
10000 kPa | 876.8 ± 2 | 858.6 ± 2 | 840.2 ± 2 | 822.4 ± 2 | 803.8 ± 2.1 | 785.1 ± 2.1 | 766.1 ± 2.1 | 746.9 ± 2.1 | 731.4 ± 2.1 | 710.6 ± 2.2
20000 kPa | 883.4 ± 2 | 866.1 ± 2 | 848.2 ± 2 | 831.5 ± 2 | 814 ± 2.1 | 797 ± 2.1 | 779.5 ± 2.1 | 762.1 ± 2.1 | 748.5 ± 2.1 | 730.4 ± 2.1
30000 kPa | 889.3 ± 2 | 872.9 ± 2 | 855.9 ± 2 | 840.1 ± 2 | 823.5 ± 2.1 | 807.5 ± 2.1 | 791.3 ± 2.1 | 774.9 ± 2.1 | 762.6 ± 2.1 | 745.9 ± 2.1
40000 kPa | 895.1 ± 2 | 879 ± 2 | 863 ± 2 | 847.6 ± 2 | 832 ± 2.1 | 816.9 ± 2.1 | 801.6 ± 2.1 | 786.5 ± 2.1 | 774.7 ± 2.1 | 759.3 ± 2.1
50000 kPa | 900.5 ± 2 | 884.8 ± 2 | 869.2 ± 2 | 854.7 ± 2 | 840.2 ± 2.1 | 825.2 ± 2.1 | 810.8 ± 2.1 | 796.7 ± 2.1 | 785.5 ± 2.1 | 771.1 ± 2.1
60000 kPa | 905.8 ± 2 | 890.4 ± 2 | 875.6 ± 2 | 861.5 ± 2.1 | 847.2 ± 2.1 | 833.3 ± 2.1 | 819.2 ± 2.1 | 805.8 ± 2.1 | 795.1 ± 2.1 | 781.7 ± 2.1
70000 kPa | 910.8 ± 2 | 896 ± 2 | 881.5 ± 2 | 867.7 ± 2.1 | 853.9 ± 2.1 | 840.6 ± 2.1 | 827.3 ± 2.1 | 814.3 ± 2.1 | 804.1 ± 2.1 | 790.9 ± 2.1
80000 kPa | 915.8 ± 2 | 901.2 ± 2 | 887.1 ± 2.1 | 873.8 ± 2.1 | 860.3 ± 2.1 | 847.3 ± 2.1 | 834.6 ± 2.1 | 822 ± 2.1 | 812.3 ± 2.1 | 799.8 ± 2.1
90000 kPa | 920.4 ± 2 | 906.3 ± 2 | 892.3 ± 2.1 | 879.6 ± 2.1 | 866.6 ± 2.1 | 854 ± 2.1 | 841.3 ± 2.1 | 829.2 ± 2.1 | 820 ± 2.1 | 808 ± 2.2
100000 kPa | 924.8 ± 2 | 911 ± 2 | 897.6 ± 2.1 | 884.9 ± 2.1 | 872.2 ± 2.1 | 860.1 ± 2.1 | 848 ± 2.1 | 836 ± 2.1 | 827.2 ± 2.1 | 815.5 ± 2.2
110000 kPa | 929.4 ± 2 | 915.7 ± 2 | 902.5 ± 2.1 | 890.3 ± 2.1 | 877.8 ± 2.1 | 866 ± 2.1 | 854.2 ± 2.1 | 842.6 ± 2.1 | 833.9 ± 2.2 | 822.8 ± 2.2
120000 kPa | 933.6 ± 2 | 920.3 ± 2 | 907.3 ± 2.1 | 895.4 ± 2.1 | 883.3 ± 2.1 | 871.6 ± 2.1 | 860.2 ± 2.1 | 848.7 ± 2.1 | 840.2 ± 2.2 | 829.5 ± 2.2
130000 kPa | 938 ± 2 | 924.8 ± 2 | 912 ± 2.1 | 900.3 ± 2.1 | 888.5 ± 2.1 | 877.2 ± 2.1 | 865.8 ± 2.1 | 854.9 ± 2.2 | 846.6 ± 2.2 | 836 ± 2.2
135000 kPa | 939.9 ± 2 | 927 ± 2 | 914.2 ± 2.1 | 902.6 ± 2.1 | 890.8 ± 2.1 | 879.8 ± 2.1 | 868.5 ± 2.1 | 857.7 ± 2.2 | 849.6 ± 2.2 | 838.9 ± 2.2
137500 kPa | 940.9 ± 2 | 927.9 ± 2 | 915.4 ± 2.1 | 903.7 ± 2.1 | 892 ± 2.1 | 881 ± 2.1 | 869.7 ± 2.1 | 859 ± 2.2 | 850.9 ± 2.2 | 840.4 ± 2.2
